Experimental data published in patent publication US8026359B2, “Fungicidal heterocyclic amines” (E.I. du Pont de Nemours and Company, priority 2007, dated 2011).

Key:
Assay type in all cases: in vivo
Settings in all cases: 200 ppm; 100 = 100% disease control, 0 = no control relative to controls
Pythium aphanidermatum = assay: Test M: bluegrass pythium blight, preventive spray on bluegrass seedlings
[1] = test system: Erysiphe graminis f. sp. tritici; assay: Test A: wheat powdery mildew, preventive spray on wheat seedlings
How it was run: (§1)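 Each test compound, pre-dissolved in acetone, was suspended in aqueous acetone containing surfactant and sprayed onto the plants to the point of run-off at 200 or 40 ppm.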

[2] = test system: Colletotrichum orbiculare; assay: Test I: cucumber Colletotrichum anthracnose, preventive spray on cucumber seedlings
How it was run: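 Compound was dissolved in acetone (3% of final volume), then suspended in 50/50 acetone/water with 250 ppm Trem 014 surfactant. Cucumber seedlings were sprayed to run-off as a preventive treatment at 200 ppm (equivalent to 500 g/ha) or 40 ppm.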

Fusarium graminearum = assay: whole plant or invertebrate
Septoria tritici = assay: Test D: wheat leaf blotch, preventive spray on wheat seedlings
How it was run: as §1

Sclerotinia sclerotiorum = assay: Test G: cucumber white mold, preventive spray on cucumber seedlings
Source text: General protocol for preparing test suspensions for Tests A-R: The test compounds were first dissolved in acetone in an amount equal to 3% of the final volume and then suspended at the desired concentration (in ppm) in acetone and purified water (50/50 mix) containing 250 ppm of the surfactant Trem® 014 (polyhydric alcohol esters). The resulting test suspensions were then used in tests A-R. In Tests A-M, compounds were sprayed as a 200 ppm test suspension (equivalent to a rate of 500 g/ha) or as a 40 ppm test suspension to the point of runoff on the test plants. In Tests N-R, compounds were sprayed as a 100 g/ha test suspension (equivalent to a rate of 100 ppm) on the test plants at an application volume of 1000 L/ha. The test suspension was sprayed to the point of run-off on cucumber seedlings.

[3] = test system: Puccinia recondita f. sp. tritici; assay: Test B: wheat leaf rust, preventive spray on wheat seedlings
How it was run: as §1

Phytophthora infestans = test system: Phytophthora infestans
Septoria nodorum = assay: Test C: wheat glume blotch, preventive spray on wheat seedlings
How it was run: as §1

Rhizoctonia oryzae = assay: Test J: turf brown patch, preventive spray on creeping bent grass seedlings
Plasmopara viticola = assay: Test L: grape downy mildew, spray after inoculation of grape seedlings
Botrytis cinerea = assay: Test F: tomato Botrytis, preventive spray on tomato seedlings
How it was run: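 Compounds dissolved in acetone (3% of final volume), suspended in 50/50 acetone/water with 250 ppm Trem® 014. Sprayed preventively to run-off on tomato seedlings at 200 ppm (500 g/ha) or 40 ppm.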

## COCC(C)Nc1nccc(-c2ccnc(Nc3cccc(F)c3)c2)n1 (stereo not drawn) [Compound 41]
Pythium aphanidermatum
  Test M disease control rating: 0%
[1]
  Test A disease control rating: 57%
[2]
  Test I disease control rating: 54%
Fusarium graminearum
  Test E disease control rating: 45%
Septoria tritici
  Test D disease control rating: 15%
Sclerotinia sclerotiorum
  Test G disease control rating: 94%
[3]
  Test B disease control rating: 98%
Phytophthora infestans
  Test K disease control rating: 0%
Septoria nodorum
  Test C disease control rating: 99%
Rhizoctonia oryzae
  Test J disease control rating: 34%
Plasmopara viticola
  Test L disease control rating: 0%
Botrytis cinerea
  Test F disease control rating: 96%
